Experimental data from ChEMBL document CHEMBL5634083, “Targeting polyketide synthase 13 for the treatment of tuberculosis” (Eur J Med Chem, 2023).
Values after ≈ are worked out from the molar mass of the structure shown.

Key:
[1] = test system: Mycobacterium tuberculosis; assay: Antimycobacterial activity against Mycobacterium tuberculosis H37Rv ATCC 27294 assessed as reduction in bacterial growth after 21 days by serial dilution method; type: functional; conditions: H37Rv ATCC 27294, 504 h, time 21 day
[2] = test system: Mycobacterium tuberculosis; assay: Antimycobacterial activity against Mycobacterium tuberculosis H37Rv assessed as reduction in bacterial growth incubated for 7 days by resazurin based assay; type: functional; conditions: 168 h, time 7 day
HepG2 = assay: Cytotoxicity against human HepG2 cells assessed as reduction in cell growth; type: functional, cell-based
[3] = test system: Mycobacterium tuberculosis; assay: Antimycobacterial activity against Mycobacterium tuberculosis H37Rv assessed as reduction in bacterial growth; type: functional
[4] = Cytotoxicity against African green monkey Vero cells assessed as reduction in cell viability; type: toxicity, cell-based; conditions: African green monkey (Chlorocebus sabaeus)
[5] = test system: Mycobacterium tuberculosis; assay: Antimycobacterial activity against Mycobacterium tuberculosis H37Rv assessed as microbial growth inhibition measured after 3 days by alamar blue assay; type: functional; conditions: 72 h, time 3 day
[6] = test system: Mycobacterium tuberculosis; assay: Antibacterial activity against Mycobacterium tuberculosis H37Rv assessed as inhibition of cell growth; type: functional
[7] = Metabolic stability in mouse liver microsomes assessed as intrinsic clearance; type: ADME, Microsome
[8] = test system: Mycobacterium tuberculosis; assay: Antimycobacterial activity against Mycobacterium tuberculosis H37Rv assessed as reduction in bacterial cell growth by resazurin reduction method; type: functional
[9] = test system: Mycobacterium tuberculosis; assay: Antitubercular activity against Mycobacterium tuberculosis H37Rv assessed as reduction in microbial growth measured after 3 weeks by resazurin microplate reader assay; type: functional; conditions: 504 h
[10] = biological target: Polyketide synthase Pks13 (Mycobacterium tuberculosis (strain ATCC 25618 / H37Rv), UniProt I6X8D2); assay: Inhibition of Mycobacterium tuberculosis recombinant Pks13 expressed in Escherichia coli BL21 (DE3) cells using 4-methylumbelliferyl heptanoate as substrate incubated for 3 hrs by […] based analysis
Sequence of Polyketide synthase Pks13 (I6X8D2 whole entry): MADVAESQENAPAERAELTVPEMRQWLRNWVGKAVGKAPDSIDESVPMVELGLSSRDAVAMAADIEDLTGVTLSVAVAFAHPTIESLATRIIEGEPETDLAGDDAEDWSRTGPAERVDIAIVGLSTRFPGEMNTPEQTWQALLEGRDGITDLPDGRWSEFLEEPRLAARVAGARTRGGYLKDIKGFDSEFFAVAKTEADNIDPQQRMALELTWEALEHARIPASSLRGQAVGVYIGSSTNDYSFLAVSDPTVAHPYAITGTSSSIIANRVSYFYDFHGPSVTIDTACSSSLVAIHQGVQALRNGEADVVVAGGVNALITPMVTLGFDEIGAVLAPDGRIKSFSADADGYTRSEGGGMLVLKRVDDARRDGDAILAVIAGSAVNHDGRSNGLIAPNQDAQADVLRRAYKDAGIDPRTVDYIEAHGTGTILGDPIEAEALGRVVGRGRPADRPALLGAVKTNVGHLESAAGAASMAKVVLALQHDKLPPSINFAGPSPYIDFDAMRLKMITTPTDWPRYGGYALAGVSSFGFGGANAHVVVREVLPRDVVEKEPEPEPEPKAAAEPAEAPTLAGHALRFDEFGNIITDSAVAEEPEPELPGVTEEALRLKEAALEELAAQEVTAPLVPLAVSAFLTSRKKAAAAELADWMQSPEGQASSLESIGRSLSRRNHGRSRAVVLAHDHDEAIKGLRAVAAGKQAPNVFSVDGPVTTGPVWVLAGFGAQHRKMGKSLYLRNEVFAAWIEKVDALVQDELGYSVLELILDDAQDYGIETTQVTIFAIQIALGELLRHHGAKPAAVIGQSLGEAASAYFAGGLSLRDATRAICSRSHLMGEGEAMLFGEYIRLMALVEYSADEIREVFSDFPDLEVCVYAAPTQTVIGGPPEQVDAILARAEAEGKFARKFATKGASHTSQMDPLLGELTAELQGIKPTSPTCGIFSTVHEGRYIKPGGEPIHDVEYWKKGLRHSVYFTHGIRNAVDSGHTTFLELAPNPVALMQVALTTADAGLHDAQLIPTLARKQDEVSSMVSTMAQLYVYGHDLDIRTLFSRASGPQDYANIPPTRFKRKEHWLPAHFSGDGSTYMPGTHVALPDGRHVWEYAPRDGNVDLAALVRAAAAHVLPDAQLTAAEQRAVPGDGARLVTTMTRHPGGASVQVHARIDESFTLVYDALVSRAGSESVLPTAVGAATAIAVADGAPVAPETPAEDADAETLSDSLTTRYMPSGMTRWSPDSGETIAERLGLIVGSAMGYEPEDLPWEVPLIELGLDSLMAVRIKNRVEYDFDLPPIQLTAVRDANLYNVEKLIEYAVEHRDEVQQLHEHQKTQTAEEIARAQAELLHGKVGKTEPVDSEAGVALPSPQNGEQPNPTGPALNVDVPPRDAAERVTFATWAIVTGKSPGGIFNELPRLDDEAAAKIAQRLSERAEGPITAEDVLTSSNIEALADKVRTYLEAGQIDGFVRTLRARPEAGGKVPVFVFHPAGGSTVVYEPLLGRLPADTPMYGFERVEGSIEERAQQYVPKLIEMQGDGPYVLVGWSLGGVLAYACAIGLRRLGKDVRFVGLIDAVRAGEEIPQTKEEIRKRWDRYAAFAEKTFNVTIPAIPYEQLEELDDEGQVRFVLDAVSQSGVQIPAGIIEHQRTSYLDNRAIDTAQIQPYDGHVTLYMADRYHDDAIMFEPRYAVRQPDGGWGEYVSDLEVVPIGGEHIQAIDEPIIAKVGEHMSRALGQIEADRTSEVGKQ

[11] = test system: Mycobacterium tuberculosis; assay: Antimycobacterial activity against Mycobacterium tuberculosis H37Rv assessed as reduction in bacterial growth measured after 16 to 24 hrs by microplate alamar blue assay; type: functional; conditions: time 16-24 hrs
[12] = Microsomal stability in human liver microsomes assessed as half life; type: ADME, Microsome
[13] = test system: Mycobacterium tuberculosis; assay: Antimycobacterial activity against Mycobacterium tuberculosis H37Rv assessed as reduction in microbial growth after 7 days by alamar blue assay; type: functional; conditions: 168 h, time 7 day

`Cc1ccc(-c2cc(C(F)(F)F)nn2-c2ccc(S(N)(=O)=O)cc2)cc1` [CELECOXIB] showed an MIC [1] of 64 µg/mL (≈ 168 µM).

Compound `COC(=O)c1c(NC(=O)c2c(F)c(F)c(F)c(F)c2F)sc2c1CCCCC2` has an MIC [2] of 1 µM (≈ 0.419 µg/mL), an IC50 (HepG2) of 7.3 µM and an MIC [3] of 0.5 µM (≈ 0.21 µg/mL). For the same compound, the IC50 [4] was 17.5 µM.

Compound `C=CCCCCCCC[C@H]1C(=O)O[C@@H]1CCCCCNC(=O)c1ccc(N(C)C)cc1` has an MIC [5] of 1.6 µM (≈ 0.686 µg/mL).

With `COc1ccccc1OCCNCC(O)COc1cccc2[nH]c3ccccc3c12` (stereo not drawn) [CARVEDILOL] the MIC [1] was 32 µg/mL (≈ 78.7 µM).

`CCOC(=O)c1c(NC(=O)c2c(F)c(F)c(F)c(F)c2F)sc(C(N)=O)c1C` showed an MIC [2] of 0.5 µM (≈ 0.211 µg/mL) and an MIC [3] of 0.5 µM (≈ 0.211 µg/mL).

`CCCCCCCCCCC[C@@H](C[C@@H]1OC(=O)[C@H]1CCCCCC)OC(=O)[C@H](CC(C)C)NC=O` [ORLISTAT] showed an MIC [6] of 15 µM (≈ 7.44 µg/mL).

In the case of `CNC(=O)c1c(-c2ccc(O)cc2)oc2ccc(O)c(CN3CCCCC3)c12`, the CLH [7] is reported as < 0.5 mL/min/g.

Work on `CNC(=O)c1c(-c2ccccc2)oc2ccc(O)c(CN3CCCCC3)c12` yielded an MIC [8] of 0.29 µM (≈ 0.106 µg/mL).

With `CCN(CC)CCCC(C)Nc1c2ccc(Cl)cc2nc2ccc(OC)cc12` (stereo not drawn) [QUINACRINE] the MIC [1] was 64 µg/mL (≈ 160 µM).

Compound `O=C(c1ccccc1)c1cc(Cl)ccc1OCc1nc(-c2ccc(C(F)(F)F)cc2)no1` has an MIC [9] of 8 µg/mL.

`O=c1cc(-c2ccccc2O)oc2ccc(O)c(CN3CCC3)c12` showed an IC50 [10] of 0.0143 µM and an MIC [11] of 0.45 µg/mL (≈ 1.39 µM).

Work on `CCOC(=O)c1c(-c2ccccc2)oc2ccc(O)c(CN3CCC(C)CC3)c12` yielded a half-life [12] of 18.8 min.

With `CCOC(=O)c1c(NC(=O)c2c(F)c(F)c(F)c(F)c2F)sc2c1CCN(CC)C2` the MIC [13] was 0.23 µM.
